Experiments:
T7 RNA polymerase = molecular target: T1, T7 RNA polymerase (Escherichia phage T7, UniProt P00573); assay: Transcription of ribo-UNA from linearized DNA template; assay type: biochemical; settings: substituted for ATP and UTP; 37° C., one hour
T1 construct: purchased Ambion Inc
Protocol: The ability to transcribe longer ribo-UNAs (rUNAs) using T7 RNA polymerase and the corresponding modified ribonucleotide triphosphates was tested using a linear double-stranded DNA template. A plasmid DNA containing the human retinoblastoma gene under control of a T7 RNA polymerase promoter was digested with the restriction endonucleases XbaI and AflII. The resulting linearized plasmid templates for a 138 nucleotide transcript when transcribed with T7 RNA polymerase (see FIG. 34A).
The transcription reactions (20 uL) contained 1× transcription buffer (Ambion Inc.), 0.5 mM GTP, 0.5 mM ATP (or 2-aminoadenosine-5′-triphosphate (rD)), 0.5 mM UTP (or 2-thiouridine-5′-triphosphate (rS), 1.6 uM α-^32P-CTP, 1 ug of the linearized DNA template and 10 units of T7 RNA polymerase (Ambion Inc.). The reaction mixtures were incubated at 37° C. for one hour and then separated by electrophoresis on a 6%/7M urea polyacrylamide gel.

Bst DNA polymerase [1] = molecular target: T2, Bst DNA polymerase (Geobacillus stearothermophilus, UniProt P52026); assay: Single nucleotide extension of 6-mer primers at varying dNTP concentration; assay type: biochemical; settings: for extension efficiency of 6-mer primer compared with natural dNTP: dNTP 0.5 microM to 130 microM, 45° C., 8 hours
T2 construct: purchased New England Biolabs
T2 sequence (P52026 290-876 limits assumed): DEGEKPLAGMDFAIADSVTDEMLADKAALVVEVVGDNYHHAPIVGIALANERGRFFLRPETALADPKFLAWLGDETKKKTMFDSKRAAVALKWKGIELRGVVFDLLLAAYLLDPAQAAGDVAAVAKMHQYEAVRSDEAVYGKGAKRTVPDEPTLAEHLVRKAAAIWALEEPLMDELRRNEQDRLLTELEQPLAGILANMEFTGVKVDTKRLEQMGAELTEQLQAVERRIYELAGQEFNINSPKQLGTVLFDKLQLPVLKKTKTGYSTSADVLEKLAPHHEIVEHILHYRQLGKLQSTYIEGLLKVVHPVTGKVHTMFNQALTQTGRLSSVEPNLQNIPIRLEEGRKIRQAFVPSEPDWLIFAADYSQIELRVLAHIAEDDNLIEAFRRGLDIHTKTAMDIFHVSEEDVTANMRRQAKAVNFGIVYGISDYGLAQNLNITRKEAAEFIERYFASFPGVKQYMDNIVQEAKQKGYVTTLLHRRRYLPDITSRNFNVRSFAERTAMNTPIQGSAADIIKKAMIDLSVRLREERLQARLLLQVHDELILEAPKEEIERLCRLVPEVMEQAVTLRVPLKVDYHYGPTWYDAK
Protocol: To further assess the incorporation efficiency of the modified nucleotides by Bst DNA polymerase, the efficiency for a single nucleotide extension reaction was determined using two 6-mer primers in the presence of varying concentrations of dATP, 2-amino-2′-deoxyadenosine-5′-triphosphate, dTTP or 2-thiothymidine-5′-triphosphate (illustrated as 2-thioTTP) (FIGS. 3A and 4A). For this study, the reaction mixtures contained: 20 mM Tris-Cl (pH 8.8 @ 25° C.), 10 mM KCl, 10 mM (NH4)2SO4, 2 mM MgSO4, 0.1% Triton-X100, 500 nanoM 6-mer primer, 20 nanoM 30-mer DNA template, 0.8 units/microL (˜70 nanoM) Bst DNA polymerase and a dNTP concentration ranging from 0.5 microM to 130 microM. The reaction mixtures were incubated at 45° C. for 8 hours and separated by electrophoresis on 20% denaturing (7M urea) polyacrylamide gels.

[2] = molecular target: T3, SuperScript II MMLV reverse transcriptase (Moloney murine leukemia virus, UniProt P03355, D1183G/D1242N/E1221Q); assay: Synthesis of full-length cUNA from polyadenylated T7-RNA transcripts; assay type: biochemical; settings: additional substitution for GTP; relative to natural dNTP or D/S substituted reactions
T3 construct: 200 units of SuperScript II MMLV reverse transcriptase (InVitrogen); purchased InVitrogen
Protocol: The ability to synthesize full-length UNA copies (cUNAs) of polyadenylated RNA was tested using various reverse transcriptase enzymes and three T7-RNA transcripts having 3′-polyadenylated tails as templates. The three T7-RNA transcripts correspond to the genes for the penicillin binding protein from E. coli (pBp-1), the chlorophyll A/B binding protein from Arabidopsis thaliana (Cab), and nucleotides 5-335 of the Hepatitis C virus (HCV) genome (See FIG. 32 (panel A)). The expected length of the cUNAs generated from the three polyadenylated RNAs using an oligo-dT primer is 1194, 729 and 360 nucleotides respectively (see FIG. 32 (panel B)).
The reverse transcriptase reactions (15.0 uL) were performed in 0.65 mL pre-siliconized microfuge tubes containing the following components: 50 mM Tris-Cl (pH 8.3), 75 mM KCl, 3.0 mM MgCl2, 4.5 mM DTT, 500 uM dGTP (or dITP), 500 uM dATP (or 2-amino-2′-deoxyadenosine-5′-triphosphate), 500 uM TTP (or 2-thiothymidine-5′-triphosphate), 100 uM dCTP, 0.33 uCi of ^32P-α-dCTP, 20 nM each T7-RNA template, 1.0 uM T16N2 primer, 1.0 unit of RNase Out (In Vitrogen), and 200 units of SuperScript II MMLV reverse transcriptase (InVitrogen). The buffer components, RNA template and primer were annealed by heating to 75° C. for 4 minutes and quickly cooled to room temperature. […]

[3] = 28-mer duplexes; cited from earlier work
Bst DNA polymerase [4] = molecular target: T4, Bst DNA polymerase (Geobacillus stearothermophilus, UniProt P52026); assay: Incorporation specificity of 2-thio-2′-deoxycytidine triphosphate opposite template G or I; assay type: biochemical; settings: 5.0 uM dNTP, 45° C.; for primer extension rate: template I
T4 sequence (P52026 1-876): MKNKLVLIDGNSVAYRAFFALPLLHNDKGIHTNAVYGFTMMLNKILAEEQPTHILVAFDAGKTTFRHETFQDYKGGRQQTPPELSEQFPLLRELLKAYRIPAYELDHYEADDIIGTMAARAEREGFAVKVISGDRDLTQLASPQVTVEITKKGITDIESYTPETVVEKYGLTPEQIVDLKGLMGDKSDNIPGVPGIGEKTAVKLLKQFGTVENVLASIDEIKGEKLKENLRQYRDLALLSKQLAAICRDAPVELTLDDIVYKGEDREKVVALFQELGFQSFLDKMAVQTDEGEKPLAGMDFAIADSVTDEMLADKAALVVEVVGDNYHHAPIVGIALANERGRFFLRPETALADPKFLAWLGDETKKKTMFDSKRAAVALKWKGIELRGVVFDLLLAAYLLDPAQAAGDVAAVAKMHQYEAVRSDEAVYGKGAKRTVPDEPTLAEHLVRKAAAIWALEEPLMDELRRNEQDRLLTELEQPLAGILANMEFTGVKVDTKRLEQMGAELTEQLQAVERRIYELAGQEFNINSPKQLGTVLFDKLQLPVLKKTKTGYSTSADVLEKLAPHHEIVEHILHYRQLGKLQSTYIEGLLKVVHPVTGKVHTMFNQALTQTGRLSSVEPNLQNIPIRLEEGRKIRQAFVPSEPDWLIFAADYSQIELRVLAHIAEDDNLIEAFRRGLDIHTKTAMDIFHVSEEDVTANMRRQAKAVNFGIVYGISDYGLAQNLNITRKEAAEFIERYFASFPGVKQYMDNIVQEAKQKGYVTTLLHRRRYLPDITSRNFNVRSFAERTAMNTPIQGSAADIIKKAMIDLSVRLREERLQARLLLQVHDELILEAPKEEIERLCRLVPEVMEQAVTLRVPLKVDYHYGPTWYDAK
Protocol: The reactions were incubated at 45° C. At 5, 10, 20 and 40 minutes, 7.0 uL aliquots were removed and the reaction mixture was separated by electrophoresis on 20%/7M urea polyacrylamide gels. The products were visualized by phosphorimaging.

T1 sequence (P00573 whole entry): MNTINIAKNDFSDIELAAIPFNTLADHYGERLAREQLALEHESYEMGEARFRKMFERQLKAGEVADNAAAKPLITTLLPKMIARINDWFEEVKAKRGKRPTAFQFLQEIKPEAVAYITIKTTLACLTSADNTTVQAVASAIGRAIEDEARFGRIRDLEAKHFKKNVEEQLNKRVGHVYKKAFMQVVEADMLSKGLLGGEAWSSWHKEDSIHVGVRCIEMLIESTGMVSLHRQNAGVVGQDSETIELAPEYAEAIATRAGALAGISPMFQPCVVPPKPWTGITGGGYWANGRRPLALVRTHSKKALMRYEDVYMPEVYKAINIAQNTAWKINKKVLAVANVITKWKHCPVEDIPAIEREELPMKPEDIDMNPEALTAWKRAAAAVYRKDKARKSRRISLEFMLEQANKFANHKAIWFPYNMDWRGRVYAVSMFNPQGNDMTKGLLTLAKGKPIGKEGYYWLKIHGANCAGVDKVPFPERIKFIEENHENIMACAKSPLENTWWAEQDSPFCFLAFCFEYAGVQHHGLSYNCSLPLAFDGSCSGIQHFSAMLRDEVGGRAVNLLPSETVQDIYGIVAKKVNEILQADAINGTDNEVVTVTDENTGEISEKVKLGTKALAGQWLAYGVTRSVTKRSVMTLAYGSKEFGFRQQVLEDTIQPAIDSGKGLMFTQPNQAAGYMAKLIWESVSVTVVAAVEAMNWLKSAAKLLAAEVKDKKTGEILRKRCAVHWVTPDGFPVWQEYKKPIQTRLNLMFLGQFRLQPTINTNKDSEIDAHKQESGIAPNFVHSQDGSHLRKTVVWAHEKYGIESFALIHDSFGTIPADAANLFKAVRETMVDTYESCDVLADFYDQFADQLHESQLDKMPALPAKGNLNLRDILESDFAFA

## O=c1ccn([C@@H]2O[C@H](COP(=O)(O)OP(=O)(O)OP(=O)(O)O)[C@@H](O)[C@H]2O)c(=S)[nH]1 [2-thiouridine-5′-triphosphate]
T7 RNA polymerase
  full-length product (138 nucleotide transcript): full-length product is generated

## Cc1cn([C@H]2C[C@H](O)[C@@H](COP(=O)(O)OP(=O)(O)OP(=O)(O)O)O2)c(=O)[nH]c1=O [dTTP, 2′-deoxythymidine-5′-triphosphate, reference compound]
Bst DNA polymerase [1]
  EC50: ~4 µM
  extension efficiency of 6-mer primer compared with natural dNTP: very similar

## O=P(O)(O)OP(=O)(O)OP(=O)(O)OC[C@H]1O[C@@H](n2cnc3c(O)ncnc32)C[C@@H]1O [ITP, 2′-deoxyinosine-5′-triphosphate]
[2]
  reduction of yield of full-length product: about 2 fold

## Nc1ncnc2c1ncn2[C@H]1C[C@H](O)[C@@H](COP(=O)(O)OP(=O)(O)OP(=O)(O)O)O1 [dATP, 2′-deoxyadenosine-5′-triphosphate, reference compound]
Bst DNA polymerase [1]
  extension efficiency of 6-mer primer compared with natural dNTP: approximately equal efficiencies

## OC[C@H]1O[C@@H](n2cnc3c(O)ncnc32)[C@H](O)[C@@H]1O [I, inosine]
[3]
  change of duplex Tm per modified base pair: −1.9 °C

## Nc1ccn([C@H]2C[C@H](O)[C@@H](COP(=O)(O)OP(=O)(O)OP(=O)(O)O)O2)c(=O)n1 [dCTP, 2′-deoxycytidine-5′-triphosphate, reference compound]
Bst DNA polymerase [4]; template G
  conversion of the 12-mer primer to the 13-mer extension product: efficient conversion
Bst DNA polymerase [4]
  primer extension rate: equivalent

## Nc1nc(N)c2ncn([C@@H]3O[C@H](COP(=O)(O)OP(=O)(O)OP(=O)(O)O)[C@@H](O)[C@H]3O)c2n1 [2-aminoadenosine-5′-triphosphate]
T7 RNA polymerase
  full-length product (138 nucleotide transcript): full-length product is generated

## c1cc2[nH]cncc-2n1 [P, pyrrolo-pyrimidine]
[3]
  change of duplex Tm per modified base pair: −0.5 °C

## Nc1ccn([C@H]2C[C@H](O)[C@@H](COP(=O)(O)OP(=O)(O)OP(=O)(O)O)O2)c(=S)n1 [2-thio-2′-deoxycytidine triphosphate, 2-thio-2′-deoxycytidine-5′-triphosphate]
Bst DNA polymerase [4]
  primer extension rate: equivalent

— patent publication US20040086880A1, “Method of producing nucleic acid molecules with reduced secondary structure” (priority 1999, published 2004)
